In US20240417407A1, “FUROINDAZOLE DERIVATIVES AS GPR84 ANTAGONISTS” (Bayer Aktiengesellschaft, priority 2021, published 2024):

molecular target: T1, human GPR84 receptor (Homo sapiens, UniProt Q9NQS5); assay: cAMP HTRF assay for identification of cellular GPR84 antagonists; assay type: cell-based; details: CHO-K1 cells stably expressing human GPR84; Forskolin plus agonist 6-OAU; cAMP HTRF readout; average or median values
T1 construct: frozen aliquots prepared by acCELLerate; host or cells: CHO-K1
T1 sequence (Q9NQS5 whole entry): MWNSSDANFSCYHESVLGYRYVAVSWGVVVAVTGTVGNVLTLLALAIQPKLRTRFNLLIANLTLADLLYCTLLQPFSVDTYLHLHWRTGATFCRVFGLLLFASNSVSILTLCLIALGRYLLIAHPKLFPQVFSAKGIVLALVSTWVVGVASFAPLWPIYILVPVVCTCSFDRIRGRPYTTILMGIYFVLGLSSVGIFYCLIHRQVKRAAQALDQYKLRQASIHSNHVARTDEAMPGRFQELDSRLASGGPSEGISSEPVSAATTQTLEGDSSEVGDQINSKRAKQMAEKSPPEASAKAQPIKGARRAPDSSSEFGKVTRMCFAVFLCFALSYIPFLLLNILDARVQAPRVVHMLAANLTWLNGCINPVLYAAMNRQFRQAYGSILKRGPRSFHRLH
From the text: cAMP HTRF® Assay for Identification of Cellular GPR84 Antagonists
By using a Homogenous Time-Resolved Fluorescence (HTRF®) based assay (#62AM5PEJ, Cisbio, Condolet, France) the inhibition of the Gi-coupled GPR84 receptor can be detected. CHO-K1 cells stably expressing human GPR84 receptor (purchased from DiscoveRx, now Eurofins) were used and treated with Forskolin (F6886, Sigma, Germany) to stimulate membrane adenylyl cyclases and thereby unspecific cAMP formation. Activation of the Gi-coupled GPR84 by a natural or small molecule agonist (e.g. 6-n-octyl aminouracile, inhouse) results in inhibition of cellular cAMP formation which can be released again by antagonists to this receptor. Detection and quantification of cellular cAMP levels in this HTRF assay is achieved by interaction between a fluorescent cAMP tracer (cAMP-d2) and an Eu-cryptate labelled anti-cAMP antibody. Following excitation at 337 nm this pairing allows for the generation of a fluorescence resonance energy transfer (FRET) between the partners and results in FRET induced emissions at 665 nm and 620 nm, the latter representing background signal by Eu-cryptate labelled anti-cAMP antibody. Maximal signal is obtained in the absence of any cellular cAMP (no competition for the binding of the tracer to the antibody). Given the combination of the Gi coupling properties of GPR84 and the competitive nature of the detection system agonist treatment should result in an increase in the HTRF signal due to lowered cAMP levels. Any signal decrease in the presence of Forskolin, agonist and compound is indicative of antagonist mediated abrogation of GPR84 signalling.
For the assay, frozen aliquots of CHO-K1 cells expressing hGPR84 (prepared by acCELLerate, Hamburg, Germany) were thawed and a cell suspension (1.67E+06 cells/mL) in assay media (Ham's F12 Nutrient Mix, Thermo Fisher Scientific, Waltham, USA; 5% fetal calf serum, Biomol, Hamburg, Germany) containing cAMP-d2 (dilution 1:20, supplied with the kit #62AM5PEJ, Cisbio, Condolet, France) was prepared. After recovery of cells for 20 minutes at 37° C., 3 μL/well cell suspension including cAMP-d2 were added to a pre-dispensed assay plate (Greiner Bio-One, Kremsmuenster, Austria) containing 50 nl/well test compound in 100% DMSO or 100% DMSO as control. This was followed by a 30 minutes incubation step at room temperature. […] The reaction was stopped by addition of 3 μL/well lysis buffer containing cAMP Eu-Cryptate antibody (dilution 1:20) (both supplied with the kit #62AM5PEJ, Cisbio, Condolet, France). To enable complete lysis, plates were incubated for 60 minutes at room temperature before measurement in an HTRF reader, e.g. a PHERAstar (BMG Labtech, Ortenberg, Germany).
From the fluorescence emissions at 665 nm (FRET) and at 620 nm (background signal of Eu-cryptate) the ratio (emission at 665 nm divided by emission at 620 nm×10000) was calculated and the data were normalized (reaction without test compound, only 100% DMSO=0% inhibition; all other assay components except agonist=100% inhibition). For dose response testing on the same microtiter plate, compounds were tested at 11 different concentrations in the range of 20 μM to 0.07 nM (20 μM, 5.7 μM, 1.6 μM, 0.47 μM, 0.13 μM, 38 nM, 11 nM, 3.1 nM, 0.89 nM, 0.25 and 0.07 nM; dilution series prepared before the assay at the level of the 100-fold conc. stock solutions by serial 1:3.5 dilutions in 100% DMSO) in duplicate values for each concentration. IC50 values were calculated by 4-parameter fitting using a commercial software package (Genedata Screener, Basel, Switzerland).
Examples were tested in selected biological assays one or more times. […]

Row | IC50 [nM] | Structure (SMILES)
1 | 16 | Cc1c(C(=O)NC[C@@H]2CCCO2)oc2ccc3cn(Cc4ccccn4)nc3c12 [Example 40, 8-methyl-2-(pyridin-2-ylmethyl)-N-[(2S)-tetrahydrofuran-2-ylmethyl]-2H-furo[2,3-g]indazole-7-carboxamide]
2 | 530 | O=C(NC[C@@H]1CCCO1)c1oc2ccc3cn(Cc4ccccn4)nc3c2c1CO [Example 41, 8-(hydroxymethyl)-2-(pyridin-2-ylmethyl)-N-[(2S)-tetrahydrofuran-2-ylmethyl]-2H-furo[2,3-g]indazole-7-carboxamide]
3 | 880 | O=C(NC[C@@H]1CCCO1)c1cc2c(ccc3cn(Cc4ccccn4)nc32)o1 [Example 42, 2-(pyridin-2-ylmethyl)-N-[(2S)-tetrahydrofuran-2-ylmethyl]-2H-furo[2,3-g]indazole-7-carboxamide]
4 | 4930 | O=C(NC[C@@H]1CCCO1)c1cc2c(cc(Br)c3cn(Cc4ccccn4)nc32)o1 [Example 43, 4-bromo-2-(pyridin-2-ylmethyl)-N-[(2S)-tetrahydrofuran-2-ylmethyl]-2H-furo[2,3-g]indazole-7-carboxamide]
5 | 54 | CCc1cc2oc(C(=O)NC[C@@H]3COCCO3)c(C)c2c2nn(C[C@H]3COCCO3)cc12 [Example 44, N-{[(2R)-1,4-dioxan-2-yl]methyl}-2-{[(2S)-1,4-dioxan-2-yl]methyl}-4-ethyl-8-methyl-2H-furo[2,3-g]indazole-7-carboxamide]
